Data reported in patent publication US11612601B1, “Targeting epidermal growth factor to treat vascular calcification” (THE FLORIDA INTERNATIONAL UNIVERSITY BOARD OF TRUSTEES, priority 2022, dated 2023).

Experiments:
CKD mice [1] = assay: Aorta immunofluorescence and subcellular (cytosolic) fractionation in CKD mice; format: in vivo, mouse
Method: 8-week-old wild type C57BL/6J mice (n=20, female) received the adenine-supplemented diet for 6 weeks to induce CKD, followed by two additional weeks of the diet containing 1.8% phosphate and 0.2% adenine to induce medial calcinosis. Mice were split into two groups (10 per group). The first group received daily tyrphostin AG1478 (10 mg/kg mouse), while the other group received vehicle (1% w/v, carboxymethylcellulose sodium salt). At study endpoint, the animals were euthanized, and the aortas were resected.
A subcellular protein fractionation kit for tissue (Thermofisher, 87790) was used to isolate cellular cytosolic fraction from the resected aortas, using the manufacturer's protocol. Briefly, the tissues were minced and homogenized using a grinder. The samples were then incubated in a cytoplasmic extraction buffer for 10 min at 4° C., followed by centrifugation at 1000×g for 5 min. The supernatants yielded the cytosolic fraction. To obtain sufficient protein for analyses, two aortas were pooled per data point.
VSMCs, osteoblasts, isolated EVs (either from cells or mouse aortas), and matrix vesicles (from osteoblasts) were lysed in RIPA lysis and extraction buffer supplemented with protease inhibitor. After adding Laemmli SDS-sample buffer (1:4 v/v, Boston BioProducts, BP-110R) to each lysate, the samples were denatured at 100° C. for 10 min, loaded into 7.5-12% 1-mm SDS-PAGE gel (15 to 20 μg protein per lane), and run at 170 V. The proteins were then transferred to Trans-Blot turbo nitrocellulose membranes (BIO-RAD, 1704158) at 25 V for 7 min.
To quantify the total protein, the membranes were stained using 2% w/v Ponceau stain (Alfa Aesar, AAJ6074409) for 20 min, followed by one wash with 5% acetic acid and milliQ water for 5 min. After imaging, the intensity of each lane was measured in ImageJ for total protein normalization. Membranes were blocked with 5% w/v bovine serum albumin (HyClone, SH30574.01) in TBS-Tween (1×) for 1 hour. […] The protein bands were visualized with Odyssey CLx scanner (Li-Cor), and quantified using Image Studio Lite software (Li-Cor). […]

CKD mice [2] = assay: Chronic kidney disease and vascular calcification mouse model (OsteoSense calcium tracer in aorta); format: in vivo; details: for vascular calcification (calcium tracer OsteoSense visualization, aorta): daily oral gavage 10 mg/kg for two weeks, vs CKD vehicle, 10 mg/kg
Description: The in vivo study was approved by the Institutional Animal Care and Use Committee (IACUC) at Florida International University under protocol AN20-006 and conformed to current NIH guidelines. 8-week-old wild type C57BL/6J mice (n=38, 19 per biological sex) were fed an adenine-supplemented diet (0.2%, TestDiet, Richmond, Ind.) for 6 weeks to induce severe kidney injury. The mice then received a diet containing 1.8% phosphate (TestDiet, Richmond, Ind.) and 0.2% adenine for an additional two weeks to induce medial calcinosis.
Along with this calcifying diet, a group of mice (n=19) received daily tyrphostin AG1478 (10 mg/kg mouse, Millipore Sigma, T4182) via oral gavage. The remaining mice (n=19) received vehicle treatment (1% w/v, carboxymethylcellulose sodium salt, Sigma, C5678). For non-diseased controls, a third group of mice (n=12, 6 per biological sex) were fed a regular chow diet and received the vehicle for the final two weeks. During the oral gavage, animals were partially anesthetized using isoflurane (1%, Patterson Veterinary, 07-893-1389, in 2 L.min^−1 oxygen flow). All animals received a tail vein injection with the calcium tracer OsteoSense 680EX (80 nmol/kg mouse, PerkinElmer, NEV10020EX) 48 hours prior to euthanization. At study endpoint, mice were anesthetized with isoflurane (1%, in 2 L.min^−1 oxygen flow) followed by retro-orbital bleeding for blood collection. Mice were then immediately euthanized by laceration of the diaphragm before tissue collection. After resection, the aortas were imaged using a near-infrared scanner (LI-COR Odyssey) to visualize the vascular calcification burden. A custom MATLAB script quantified the total area of the calcium tracer, which was normalized to the total scanned aorta area.

[3] = treated CKD animals compared to CKD group

Question: How did the “CAV1, EGFR, and TNAP immunofluorescence in the aorta” value (CKD mice [1]; qualitative, CKD mice treated, compared to chow-fed controls) turn out when `COc1cc2ncnc(Nc3cccc(Cl)c3)c2cc1OC` [AG1478, tyrphostin AG1478] was run?
Answer: The value was “elevation of all three proteins”.

Question: And the “cytosolic CAV1 protein in aorta” value (CKD mice [1]; [3])?
Answer: Its value is “higher”.

Question: And the “cytosolic TNAP protein in aorta” value (CKD mice [1]; [3])?
Answer: Its value is “higher”.

Question: What about the “Quantification of the OsteoSense intensity (vascular calcification)” value (CKD mice [2]; CKD mice, 10 mg/kg daily, two weeks, vs CKD, p≤0.001) of the same molecule?
Answer: The value was “significant reduction”.

Question: And the “vascular calcification (calcium tracer OsteoSense visualization, aorta)” value (CKD mice [2]; CKD mice)?
Answer: The value was “reduced calcium burden”.

Question: And the “vascular calcification (calcium tracer OsteoSense visualization, aorta)” value (CKD mice [2]; CKD mice, listed as EGFR inhibitor)?
Answer: Its value is “dramatically reduced”.

Question: What about the survival rate (CKD mice [2]; CKD mouse model) of the same molecule?
Answer: Its survival rate is 100%.
